Tests used:
[1] = test system: Panc-1 human pancreatic cancer cells; assay: Cell growth (IncuCyte confluence) in Panc-1 cells
Description: Values are mean±SD, n=4, each experiment completed in technical quadruplicate.
To investigate tumor cell selectivity, human pancreatic nestin-expressing cells (HPNE) were used as a surrogate for normal epithelial cells, and human pancreatic stellate cells (HPSC) were studied as a non-transformed stromal cell type. Cells were exposed to escalating concentrations of MMe, pCF3-MMe, mCF3-MMe, and pMeO-MMe (FIGS. 2A-2D) and percent confluency measured as a surrogate for daily proliferation.
Cells were plated to standard 96-well tissue culture plates at 4,000 cells/well. Mitochondria-targeted compounds were diluted in full serum medium and added to wells. Cell confluence was measured using an IncuCyte S3 every 2 hours at 10× magnification. […] Image analyses were conducted using the IncuCyte S3 imaging software system.

[2] = test system: KPC1242, Panc-1, AsPC-1, HCT-116, MDA-MB-231, OVCAR-4, OVCAR-8 cancer cell lines; assay: Cell growth (IncuCyte confluence) in cancer cell lines; assay type: cell-based, murine, human; conditions: increasing concentrations 0.1 μM-10 μM, each of the cancer cells
Description: (§1) Murine pancreatic cancer cells KPC1242 (David Tuveson, Cold Spring Harbor), human pancreatic cancer cells, Panc-1 (ATCC: CRL-1469), human breast cancer cells MDA-MB-231 (ATCC: CRM-HTB-26), and human pancreatic stellate cells HPSC (Rosa F. Hwang, MD Anderson cancer) were all cultured in DMEM (Gibco ThermoFisher Scientific, Waltham, MA, Cat #11965084) containing 10% v/v fetal bovine serum (Omega Scientific, Inc., Tarzana, CA, Cat #FB-12). Human pancreatic cancer cells AsPC-1 (ATCC: CRL-1682), human ovarian cancer cells OVCAR-8 (NIH: CVCL-1629), and human ovarian cancer cells OVCAR-4 (NIH: CVCL-1627) were all cultured in DMEM (Gibco, Cat #22400089) containing 10% v/v fetal bovine serum (Omega Scientific). Human colon cancer cells HCT-116 (ATCC: CCL-247) were cultured in McCoy's 5A Modified Medium (Gibco, Cat #16600082) containing 10% v/v fetal bovine serum (Omega Scientific). Human pancreatic duct epithelial cells HPNE (ATCC: CRL-4023) were cultured in DMEM and 200 mM L-Glutamine and 7.5% w/v NaCO3 further supplemented with 15% v/v fetal bovine serum, M3-Base A (Incell, San Antonio, TX), 1M D-Glucose (Gibco Cat #J60067.EQE), 100 μg/mL human EGF (Gibco Cat #PHG0313) and 10 mg/mL puromycin (ThermoFisher, Cat #A1113802).

[3] = test system: HPNE and HPSC non-transformed cells; assay: Cell growth (confluence) of normal non-transformed cells; assay type: cell-based, human
Description: To test the off-target effects of the refined MMe analogs on normal non-transformed cells, the growth of HPNE cells (FIGS. 11A, 11D, and 11G), used as a surrogate for normal pancreatic ductal epithelium, or normal stromal HPSC cells (FIGS. 11B, 11E, and 11H) were measured in increasing concentrations of MMe, pCF3-MMe, or mCF3-MMe and compared to the vehicle control.
as §1

diabetic patients = conditions: cited from earlier work

Structure (SMILES): COc1ccc([P+](CCCCCCCCCCNC(=N)NC(=N)N)(c2ccc(OC)cc2)c2ccc(OC)cc2)cc1 [pMeO-MMe]
- confluence ([1]; human pancreatic cancer cells): concentration-dependent decrease in confluence
- efficacy in pancreas cancer cells ([1]; in contrast to the fluorinated compound): significantly lower efficacy

Structure (SMILES): N=C(N)NC(=N)NCCCCCCCCCC[P+](c1cccc(C(F)(F)F)c1)(c1cccc(C(F)(F)F)c1)c1cccc(C(F)(F)F)c1.[Br-] [mCF3-MMe, (10-(3-carbamimidoylguanidino)decyl)tris(3-(trifluoromethyl)phenyl)phosphonium bromide]
- cell confluency [2]: decreased in a concentration-dependent manner
- reduction in toxicity to normal cells compared to MMe [3]: ~10 fold
- sensitivity of normal non-transformed cells compared to cancer cells ([3]; HPNE, HPSC versus cancer cells): more than a log less sensitive

Structure (SMILES): CN(C)C(=N)N=C(N)N [Metformin]
- tolerated daily doses (diabetic patients): 2-3 grams

— US20250042925A1, “Improved Compositions and Methods for Targeting Mitochondria in Cancer Cells” (The Medical College of Wisconsin, Inc., priority 2021, published 2025)
